From US9790169B2, “IDO inhibitors” (BRISTOL-MYERS SQUIBB COMPANY, priority 2015, dated 2017) come the findings set out here.

The structures appear in SMILES notation.

This assay concerns the target human IDO1 (Homo sapiens, UniProt P14902). Nature of the assay: Assessment of human IDO-1 inhibitory activity in HEK cells (human IDO1/HEK293 cells, kynurenine read-out with Ehrlich reagent, absorbance 490 nm). The format is cell-based. Set-up: expressed in transfected cells. Particulars: HEK Human IDO-1 cellular assay. The method in brief:
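Kynurenine output from stably IDO1-transfected HEK293 cells (10,000/well, phenol red-free RPMI, 10% FBS) after 20 h compound exposure at 37 °C. The reaction was stopped with 0.2% TCA and heated 30 min at 50 °C, then the supernatant was mixed with Ehrlich reagent and read at 490 nm. IC50 was set against DMSO and a 500 nM reference standard as 0 and 100% inhibition.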

Sequence of human IDO1 (P14902 whole entry): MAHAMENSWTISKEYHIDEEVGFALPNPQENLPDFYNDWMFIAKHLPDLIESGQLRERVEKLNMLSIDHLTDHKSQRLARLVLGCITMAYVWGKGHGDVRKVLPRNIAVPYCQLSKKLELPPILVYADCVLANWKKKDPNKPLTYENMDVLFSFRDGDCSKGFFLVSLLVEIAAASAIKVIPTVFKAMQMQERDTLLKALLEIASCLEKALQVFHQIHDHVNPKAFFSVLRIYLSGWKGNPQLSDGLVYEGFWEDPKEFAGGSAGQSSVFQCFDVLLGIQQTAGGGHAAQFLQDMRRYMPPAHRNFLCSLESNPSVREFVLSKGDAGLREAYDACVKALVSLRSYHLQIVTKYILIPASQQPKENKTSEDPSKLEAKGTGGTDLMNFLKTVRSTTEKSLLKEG

With `COCC(CC(=O)O)c1ccc(N(CC2CC2)C2CCOCC2)c(Nc2ccc(C#N)c(C)c2)c1` (single isomer, unassigned) [Example 686, 3-(3-((4-cyano-3-methylphenyl)amino)-4-((cyclopropylmethyl) (tetrahydro-2H-pyran-4-yl)amino)phenyl)-4-methoxybutanoic acid], the IC50 (commonly the point on the concentration scale where inhibition reaches its midpoint) was under 0.005 µM.

Regarding `COCC(CC(=O)O)c1ccc(N(CC2CC2)C2CCOCC2)c(Nc2ccc(C#N)cc2)c1` (single isomer, unassigned) [Example 687, 3-(3-((4-cyanophenyl)amino)-4-((cyclopropylmethyl) (tetrahydro-2H-pyran-4-yl)amino)phenyl)-4-methoxybutanoic acid], the IC50 is under 0.05 µM.

For the compound `COCC(CC(=O)O)c1ccc(N(CC2CC2)C2CCOCC2)c(Nc2ccc(C(N)=O)nc2)c1` (single isomer, unassigned) [Example 688, 3-(3-((6-carbamoylpyridin-3-yl)amino)-4-((cyclopropylmethyl) (tetrahydro-2H-pyran-4-yl)amino)phenyl)-4-methoxybutanoic acid], the IC50 is over 0.05 µM.

As for `COCC(CC(=O)O)c1ccc(N(CC2CC2)C2CCOCC2)c(Nc2ccc3nc(C)sc3c2)c1` (single isomer, unassigned) [Example 689, 3-(4-((cyclopropylmethyl) (tetrahydro-2H-pyran-4-yl)amino)-3-((2-methylbenzo[d]thiazol-6-yl)amino)phenyl)-4-methoxybutanoic acid], the IC50 is over 0.05 µM.

On to `COCC(CC(=O)O)c1ccc(N(CC2CC2)C2CCOCC2)c(Nc2ccc(Cl)cc2)c1` (single isomer, unassigned) [Example 690, 3-(3-((4-chlorophenyl)amino)-4-((cyclopropylmethyl) (tetrahydro-2H-pyran-4-yl)amino)phenyl)-4-methoxybutanoic acid], for which the IC50 was over 0.05 µM.

For the compound `COCC(CC(=O)O)c1ccc(N(CC2CC2)C2CCOCC2)c(Nc2ccc(C#N)cc2)c1` (single isomer, unassigned) [Example 691, 3-(3-((4-cyanophenyl)amino)-4-((cyclopropylmethyl) (tetrahydro-2H-pyran-4-yl)amino)phenyl)-4-methoxybutanoic acid], the IC50 was under 0.005 µM.

Consider `COCC(CC(=O)O)c1ccc(N(CC2CC2)C2CCOCC2)c(Nc2ccc(C#N)c(C)c2)c1` (single isomer, unassigned) [Example 692, 3-(3-((4-cyano-3-methylphenyl)amino)-4-((cyclopropylmethyl) (tetrahydro-2H-pyran-4-yl)amino)phenyl)-4-methoxybutanoic acid], for which the IC50 was under 0.05 µM.

Consider `CCC(CC(=O)O)c1ccc(N(CC2CC2)C2CCOCC2)c(NC(=O)Nc2ccc(C)cc2)c1` (single isomer, unassigned) [Example 695, 3-(4-((Cyclopropylmethyl)(tetrahydro-2H-pyran-4-yl)amino)-3-(3-(p-tolyl)ureido)phenyl)pentanoic acid], for which the IC50 is under 0.05 µM.

As to `CCC(CC(=O)O)c1ccc(N(CC2CC2)C2CCOCC2)c(NC(=O)Nc2ccc(Cl)cc2F)c1` (single isomer, unassigned) [Example 696, 3-(3-(3-(4-Chloro-2-fluorophenyl)ureido)-4-((cyclopropylmethyl)(tetrahydro-2H-pyran-4-yl)amino)phenyl)pentanoic acid], the IC50 is under 0.005 µM.

Take `CCC(CC(=O)O)c1ccc(N(CC2CC2)C2CCOCC2)c(NC(=O)Nc2cc(C)on2)c1` (single isomer, unassigned) [Example 697, 3-(4-((Cyclopropylmethyl)(tetrahydro-2H-pyran-4-yl)amino)-3-(3-(5-methylisoxazol-3-yl)ureido)phenyl)pentanoic acid]: the IC50 was over 0.05 µM.

In the case of `CCC(CC(=O)O)c1ccc(N(CC2CC2)C2CCOCC2)c(Nc2ccc3nc(C)sc3c2)c1` (single isomer, unassigned) [Example 701, 3-(4-((Cyclopropylmethyl)(tetrahydro-2H-pyran-4-yl)amino)-3-((2-methylbenzo[d]thiazol-6-yl)amino)phenyl)pentanoic acid], the IC50 was under 0.05 µM.
